Experimental data taken from article PMC8222713, “Variation of Two S3b Residues in KV4.1–4.3 Channels Underlies Their Different Modulations by Spider Toxin κ-LhTx-1” (Frontiers in Pharmacology, 2021).
Where a SMILES comes first, the peptide text is derived from it. Bridges are numbered along the chain shown (N, C = ends).

Columns and labels:
KV4.2 channel (rKV4.2) = target: T1, KV4.2 channel (rKV4.2) (Rattus norvegicus, UniProt Q63881); experiment: Whole-cell patch clamp, KV4.2 (with hKChIP1) in CHO-K1 cells; type: cell-based
T1 construct: expressed in transfected cells; host or cells: CHO-K1 (transient, co-transfected with pEGFP-N1 and hKChIP1)
T1 sequence (Q63881 1-630): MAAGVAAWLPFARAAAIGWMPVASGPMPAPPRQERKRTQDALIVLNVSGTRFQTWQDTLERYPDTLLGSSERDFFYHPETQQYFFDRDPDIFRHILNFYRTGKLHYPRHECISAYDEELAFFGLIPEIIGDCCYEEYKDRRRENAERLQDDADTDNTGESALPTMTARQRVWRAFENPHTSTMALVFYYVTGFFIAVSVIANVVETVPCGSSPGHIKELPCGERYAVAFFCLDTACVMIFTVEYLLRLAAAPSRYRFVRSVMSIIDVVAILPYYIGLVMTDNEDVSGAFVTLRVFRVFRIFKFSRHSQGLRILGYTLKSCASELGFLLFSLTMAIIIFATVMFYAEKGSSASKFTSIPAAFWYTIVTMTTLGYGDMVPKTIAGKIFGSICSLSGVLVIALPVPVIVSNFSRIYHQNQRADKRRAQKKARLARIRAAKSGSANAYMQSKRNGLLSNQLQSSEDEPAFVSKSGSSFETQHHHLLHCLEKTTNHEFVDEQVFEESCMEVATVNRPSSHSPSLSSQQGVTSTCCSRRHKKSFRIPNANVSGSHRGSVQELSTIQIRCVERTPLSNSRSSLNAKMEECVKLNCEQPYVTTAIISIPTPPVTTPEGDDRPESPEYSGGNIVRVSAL
T1 sequence (Q9NZI2 1-227 partner): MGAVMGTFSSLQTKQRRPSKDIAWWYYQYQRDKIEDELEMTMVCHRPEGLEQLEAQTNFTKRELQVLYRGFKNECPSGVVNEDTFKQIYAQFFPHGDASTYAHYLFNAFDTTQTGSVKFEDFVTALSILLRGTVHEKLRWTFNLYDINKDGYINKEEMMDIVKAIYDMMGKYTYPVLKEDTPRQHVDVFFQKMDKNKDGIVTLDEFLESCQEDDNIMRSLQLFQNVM
Method: (§1) The cDNA of hKV1.1, hKV1.3, rKV1.4, hKV1.5, rKV2.1, hKV3.1–3.4, mKV4.1, rKV4.2, and rKV4.3 were subcloned in the eukaryotic expression vector pCDNA3.1 or pCMV-blank. Channel mutants were made by a site-directed mutation method. Briefly, a pair of oppositely directed primers with 15 bp overlap at their 5′ ends and the designed mutation site were used to amplify the parental channel plasmid, then the PCR mix was treated with DpnI to remove the template. 10 μL digestion mix was directly used to transform 100 μL DH5α chemical competent cells. The correct mutation made by this procedure was finally confirmed by DNA sequencing. CHO-K1 cells (ATCC® CCL-61™) were grown in DMEM-F12 mixed medium (1:1) supplemented with 10% FBS and maintained in standard conditions (saturated humidity, 37°C, 5% CO2). Channel plasmid was co-transfected with pEGFP-N1 (encodes the green fluoresence protein) into CHO-K1 cells using lipofectamine 2000 following the manufacturer’s instructions. 4–6 h after transfection, cells were seeded onto poly-lysine (PLL) coated coverslips, and 24–36 h later, transfected cells were ready for patch-clamp analysis. It should be note that KV4.2 and its mutants were also co-expressed with hKChIP1 to promote their functional expressions.
(§2) Whole-cell patch clamp recording was performed in an electrophysiology platform equipped with MultiClamp 700B amplifier and Axon Digidata 1550 AD/DA convertor (Axon Instruments, Irvine, CA, United States). Data were acquired using the pClamp software (Axon Instruments, Irvine, CA, United States). All experiments were performed at room temperature. The bath solution contains (in mM): 140 NaCl, 5 KCl, 1 MgCl2, 2 CaCl2, 10 glucose, and 10 HEPES (pH = 7.3). The pipette solution contains (in mM): 140 KCl, 2.5 MgCl2, 11 EGTA, and 10 HEPES (pH = 7.3). Series resistance was kept below 10 MΩ and compensated to 80%. The concentration–response curves were fitted by a Hill logistic equation to estimate the potency (IC50) of the toxin. The whole cell conductance (G) at each depolarizing voltage (V) was determined using the equation: G = I/(V−Vrev), where I and Vrev represents the current amplitude and the reversal potential, respectively. In the present study, Vrev for K^+ current is determined to be −85.61 mV using the Nernst equation. G-V curve was obtained by plotting the normalized G as a function of V and fitted by the Boltzmann equation: y = 1/{1 + exp [(Va−V)/K]}, in which Va, V, and K represents half-maximum activation voltage, test voltage and slope factor, respectively. The steady-state fast inactivation of KV4 channels was measured using a classical two-pulses protocol: cell was held at −120 mV, and a train of conditional voltages (−120–40 mV, in 10 mV increment, 1,000 ms) were applied to induce channel inactivation, followed by a +60 mV test pulse (300 ms) to assess the proportion of non-inactivated channels; the sweep interval was set to 10 s. Currents at the test pulse (I) were normalized to the maximum value (Imax) and plotted as a function of the conditional voltage (V), the curve was fitted by the Boltzmann equation: I/Imax = A + (1−A)/{1 + exp [(V−Vh)/K]}, where Vh is the half-maximum inactivation voltage, A represents the minimum channel availability, and K is the slope factor. Gating currents of KV4.1–4.3 channels were measured as previously reported ([Tilley et al., 2019]). Briefly, the ionic pore currents were abolished by replacing K^+ with NMDG^+ in the pipette solution, and 10 µM Cs^+ was present in the bath solution to occupy the selectivity filter of KV channels to prevent decay of the gating currents during recording.
(§3) Data were presented as MEAN ± SEM, n represents the number of separate experimental cells. Data were analyzed using the software Clampfit 10.5 (Axon Instruments, Irvine, CA, United States), Graphpad Prism 5.01 (GraphPad Software, La Jolla, CA, United States) and Excel 2010 (Microsoft Corporation, Redmond, WA, United States). […]

KV4.3/N278K mutant = experiment: Whole-cell patch clamp, KV4.3/N278K in CHO-K1 cells; type: cell-based, rat
Method: as §1, §2, §3

[1] = 10 μM κ-LhTx-1, KV4.2, G-V, mean ± SEM, n = 8
[2] = 10 μM κ-LhTx-1, KV4.2, two-pulse protocol, mean ± SEM, n = 6
[3] = 10 μM κ-LhTx-1, G-V, mean ± SEM, n = 6
[4] = 10 μM κ-LhTx-1, two-pulse protocol, mean ± SEM, n = 5

## CC[C@H](C)[C@@H]1NC(=O)[C@H](CCC(N)=O)NC(=O)[C@@H]2CSSC[C@@H]3NC(=O)[C@H](CC(C)C)NC(=O)[C@H](CC(N)=O)NC(=O)[C@H](CCSC)NC(=O)[C@H](Cc4c[nH]c5ccccc45)NC(=O)[C@H](CO)NC(=O)[C@H](C)NC(=O)[C@@H](NC(=O)[C@H](CCC(=O)O)NC(=O)[C@H](CCC(N)=O)NC(=O)[C@H](C)NC(=O)[C@H](CC(=O)O)NC(=O)[C@@H](N)CCC(=O)O)CSSC[C@H](NC(=O)[C@H](CSSC[C@@H](C(=O)N[C@@H](CCCCN)C(=O)N[C@@H](Cc4ccc(O)cc4)C(=O)N[C@@H](CCCCN)C(=O)N[C@@H](CC(C)C)C(N)=O)NC(=O)[C@H](Cc4c[nH]c5ccccc45)NC1=O)NC(=O)[C@H](CCCCN)NC(=O)[C@H](CCCCN)NC(=O)[C@H](CCC(=O)O)NC(=O)CNC3=O)C(=O)N[C@@H](CCC(=O)O)C(=O)NCC(=O)N[C@@H](Cc1ccc(O)cc1)C(=O)N[C@@H](C(C)C)C(=O)N2 [κ-LhTx-1] (H-EDAQECASWMNLCGEKKCCEGYVCQIWCKYKL-NH2; disulfide 6-19, 13-24, 18-28 (inferred); N-terminus and C-terminus assumed)
KV4.2 channel (rKV4.2); [1]
  Va (steady-state activation): 30.24 ± 1.82 mV
  k, slope factor (steady-state activation): 21.99 ± 0.42 mV
KV4.2 channel (rKV4.2); [2]
  Vh (steady-state inactivation): -69.67 ± 1.87 mV
  k, slope factor (steady-state inactivation): 7.22 ± 0.26 mV
KV4.2 channel (rKV4.2); KV4.2
  reversibility of inhibition: in a reversible manner
KV4.2 channel (rKV4.2); KV4.2, 10 µM, inhibition ratio at each depolarizing voltage, n = 5–8
  voltage-dependence of inhibition: decreased quickly with the increment of the depolarizing voltage
KV4.2 channel (rKV4.2); KV4.2, 10 µM, n = 5–8
  I-V relationship shift: only a small shift
KV4.2 channel (rKV4.2); KV4.2 at Va depolarizing voltage
  current inhibition at Va: almost fully inhibited
KV4.2 channel (rKV4.2); Va shift by 10 μM κ-LhTx-1 vs control, KV4.2, mean ± SEM
  ∆Va (steady-state activation): 39.52 ± 2.55 mV
KV4.3/N278K mutant; [3]
  Va (steady-state activation): 68.62 ± 1.73 mV
  k, slope factor (steady-state activation): 18.03 ± 0.87 mV
KV4.3/N278K mutant; [4]
  Vh (steady-state inactivation): -17.01 ± 1.57 mV
  k, slope factor (steady-state inactivation): 10.75 ± 0.63 mV
KV4.3/N278K mutant; 10 μM, still greater than in KV4.1
  voltage-dependence of inhibition vs parental KV4.3: much less voltage-dependence
KV4.3/N278K mutant; Va shift by 10 μM κ-LhTx-1 vs control, mean ± SEM
  ∆Va (steady-state activation): 59.97 ± 2.64 mV
KV4.3/N278K mutant; Vh shift by 10 μM κ-LhTx-1 vs control, mean ± SEM
  ∆Vh (steady-state inactivation): 30.24 ± 1.80 mV
